Tests used:
hERG K+ channels = hERG K+ channels (Homo sapiens (Human), UniProt Q12809); experiment: hERG channel inhibition assay (patch-clamp, CHOhERG cells); format: cell-based; conditions: for safety window (hERG IC20/TLR7/8/9 IC50): compared to the compounds of this invention; for hERG IC20/TLR7 IC50 / hERG IC20/TLR9 IC50: safety ratio
Experimental: hERG Channel Inhibition Assay:
The hERG K^+ channels were cloned in humans and stably expressed in a CHO (Chinese hamster ovary) cell line. CHOhERG cells were used for patch-clamp (voltage-clamp, whole-cell) experiments. Cells were stimulated by a voltage pattern to activate hERG channels and conduct IKhERG currents (rapid delayed outward rectifier potassium current of the hERG channel). After the cells were stabilized for a few minutes, the amplitude and kinetics of IKhERG were recorded at a stimulation frequency of 0.1 Hz (6 bpm). Thereafter, the test compound was added to the preparation at increasing concentrations. For each concentration, an attempt was made to reach a steady-state effect, usually, this was achieved within 3-10 min at which time the next highest concentration was applied. The amplitude and kinetics of IKhERG are recorded in each concentration of the drug which were compared to the control values (taken as 100%). (references: Redfern W S, Carlsson L, Davis A S, Lynch W G, MacKenzie I, Palethorpe S, Siegl P K, Strang I, Sullivan A T, Wallis R, Camm A J, Hammond T G. 2003; Relationships between preclinical cardiac electrophysiology, clinical QT interval prolongation and torsade de pointes for a broad range of drugs: evidence for a provisional safety margin in drug development. Cardiovasc. Res. 58:32-45, Sanguinetti M C, Tristani-Firouzi M. 2006; hERG potassium channels and cardiac arrhythmia. Nature 440:463-469, Webster R, Leishman D, Walker D. 2002; Towards a drug concentration effect relationship for QT prolongation and torsades de pointes. Curr. Opin. Drug Discov. Devel. 5:116-26).

[1] = Human microsome stability assay; format: in vitro ADME; conditions: 1 μM test compound, 0.5 mg/mL liver microsomal protein
Experimental: Human Microsome Stability Assay
The human microsomal stability assay is used for early assessment of metabolic stability of a test compound in human liver microsomes.
Human liver microsomes (Cat. NO.: 452117, Corning, USA; Cat. NO.: H2610, Xenotech, USA) were preincubated with test compound for 10 minutes at 37° C. in 100 mM potassium phosphate buffer, pH 7.4. The reactions were initiated by adding NADPH regenerating system. The final incubation mixtures contained 1 μM test compound, 0.5 mg/mL liver microsomal protein, 1 mM MgCl2, 1 mM NADP, 1 unit/mL isocitric dehydrogenase and 6 mM isocitric acid in 100 mM potassium phosphate buffer, pH 7.4. After incubation times of 0, 3, 6, 9, 15 and 30 minutes at 37° C., 300 μL of cold acetonitrile (including internal standard) was added to 100 μL incubation mixture to terminate the reaction. Following precipitation and centrifugation, the amount of compound remaining in the samples were determined by LC-MS/MS. Controls of no NADPH regenerating system at zero and 30 minutes were also prepared and analyzed.

Chain of hERG K+ channels (Q12809 whole entry): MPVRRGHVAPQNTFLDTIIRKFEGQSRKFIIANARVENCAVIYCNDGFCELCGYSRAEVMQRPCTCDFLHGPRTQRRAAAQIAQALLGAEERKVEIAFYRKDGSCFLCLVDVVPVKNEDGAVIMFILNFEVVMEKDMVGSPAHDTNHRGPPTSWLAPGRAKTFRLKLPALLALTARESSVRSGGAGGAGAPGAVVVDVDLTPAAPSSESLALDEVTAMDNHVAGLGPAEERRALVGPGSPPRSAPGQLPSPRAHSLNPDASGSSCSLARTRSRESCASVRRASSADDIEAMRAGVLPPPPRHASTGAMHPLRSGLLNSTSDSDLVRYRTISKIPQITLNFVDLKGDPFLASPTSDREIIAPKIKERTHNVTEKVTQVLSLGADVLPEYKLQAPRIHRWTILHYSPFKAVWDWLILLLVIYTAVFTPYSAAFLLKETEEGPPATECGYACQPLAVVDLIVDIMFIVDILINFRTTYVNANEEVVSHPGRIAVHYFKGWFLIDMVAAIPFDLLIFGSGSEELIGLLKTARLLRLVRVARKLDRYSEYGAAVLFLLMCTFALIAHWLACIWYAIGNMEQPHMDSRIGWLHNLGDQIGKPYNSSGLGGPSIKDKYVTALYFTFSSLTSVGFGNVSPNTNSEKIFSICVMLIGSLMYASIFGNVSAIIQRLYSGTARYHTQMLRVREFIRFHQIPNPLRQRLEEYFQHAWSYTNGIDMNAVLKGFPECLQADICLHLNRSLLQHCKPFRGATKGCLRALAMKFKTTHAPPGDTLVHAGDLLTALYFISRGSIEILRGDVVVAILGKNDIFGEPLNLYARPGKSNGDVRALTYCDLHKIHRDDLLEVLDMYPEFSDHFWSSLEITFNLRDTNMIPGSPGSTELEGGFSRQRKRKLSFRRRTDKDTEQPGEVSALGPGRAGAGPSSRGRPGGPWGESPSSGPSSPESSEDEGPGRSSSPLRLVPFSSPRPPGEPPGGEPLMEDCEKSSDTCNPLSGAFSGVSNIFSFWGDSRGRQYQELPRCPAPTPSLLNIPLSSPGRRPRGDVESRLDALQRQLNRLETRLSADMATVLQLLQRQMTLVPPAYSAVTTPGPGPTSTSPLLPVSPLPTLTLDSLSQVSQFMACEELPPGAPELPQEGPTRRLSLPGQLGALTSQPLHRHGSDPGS

Clearance of Human microsome [1] [mL/min/kg]	Compound	safety window (hERG IC20/TLR7/8/9 IC50) (hERG K+ channels)	hERG IC20/TLR7 IC50 (hERG K+ channels)	hERG IC20/TLR9 IC50 (hERG K+ channels)
	C[C@@H]1CN(c2ccc(C#N)c3ncccc23)C[C@H](CN2CCN(c3ccccc3)CC2)O1 [ER-887258]	much narrower safety window	8.1	0.3
	C[C@@H]1CN(c2ccc(C#N)c3ncccc23)C[C@H](CN2CCN(c3ccccn3)CC2)O1 [ER-888285]	much narrower safety window	8.4	0.5
	C[C@@H]1CN(c2ccc(C#N)c3ncccc23)C[C@H](CN2CCN(c3ccncc3)CC2)O1 [ER-888286]	much narrower safety window	0.3	0.2
	C[C@@H]1CN(c2ccc(C#N)c3ncccc23)C[C@H](CN2CC3(C2)CN(c2cnc4c(n2)CCNC4)CCO3)O1 [Example 50, 5-[(2R,6S)-2-methyl-6-[[8-(5,6,7,8-tetrahydropyrido[3,4-b]pyrazin-2-yl)-5-oxa-2,8-diazaspiro[3.5]nonan-2-yl]methyl]morpholin-4-yl]quinoline-8-carbonitrile]			>144.9
6.15	C[C@@H]1CN(c2ccc(C#N)c3ncccc23)C[C@H](CN2CCN(c3ccc4c(n3)CN[C@H]4C)CC2)O1 [Example 63, 5-[(2R,6S)-2-methyl-6-[[4-[(5S)-5-methyl-6,7-dihydro-5H-pyrrolo[3,4-b]pyridin-2-yl]piperazin-1-yl]methyl]morpholin-4-yl]quinoline-8-carbonitrile]			
7.13	[2H]c1nc2c(C#N)ccc(N3C[C@H](CN4CCN(c5cc6c(cn5)[C@@H](C)NCC6)CC4)O[C@H](C)C3)c2nc1[2H] [Example 95, 2,3-dideuterio-8-[(2R,6S)-2-methyl-6-[[4-[(8R)-8-methyl-5,6,7,8-tetrahydro-2,7-naphthyridin-3-yl]piperazin-1-yl]methyl]morpholin-4-yl]quinoxaline-5-carbonitrile]			
6.23	[2H]c1nc2c(C#N)ccc(N3C[C@H](CN4CCN(c5ccc6c(n5)CN[C@H]6C)CC4)O[C@H](C)C3)c2nc1[2H] [Example 96, 2,3-dideuterio-8-[(2R,6S)-2-methyl-6-[[4-[(5S)-5-methyl-6,7-dihydro-5H-pyrrolo[3,4-b]pyridin-2-yl]piperazin-1-yl]methyl]morpholin-4-yl]quinoxaline-5-carbonitrile]			
6.15	[2H]c1nc2c(C#N)ccc(N3C[C@H](CN4CCN(c5ccc6c(n5)CN[C@@H]6C)CC4)O[C@H](C)C3)c2nc1[2H] [Example 97, 2,3-dideuterio-8-[(2R,6S)-2-methyl-6-[[4-[(5R)-5-methyl-6,7-dihydro-5H-pyrrolo[3,4-b]pyridin-2-yl]piperazin-1-yl]methyl]morpholin-4-yl]quinoxaline-5-carbonitrile]			
8.02	[2H]c1ccc2c(N3C[C@H](CN4CCN(c5ccc6c(n5)CN[C@@H]6C)CC4)O[C@H](C)C3)ccc(C#N)c2n1 [Example 98, 2-deuterio-5-[(2R,6S)-2-methyl-6-[[4-[(5R)-5-methyl-6,7-dihydro-5H-pyrrolo[3,4-b]pyridin-2-yl]piperazin-1-yl]methyl]morpholin-4-yl]quinoline-8-carbonitrile]			
6.32	[2H]c1ccc2c(N3C[C@H](CN4CCN(c5ccc6c(n5)CN[C@H]6C)CC4)O[C@H](C)C3)ccc(C#N)c2n1 [Example 99, 2-deuterio-5-[(2R,6S)-2-methyl-6-[[4-[(5S)-5-methyl-6,7-dihydro-5H-pyrrolo[3,4-b]pyridin-2-yl]piperazin-1-yl]methyl]morpholin-4-yl]quinoline-8-carbonitrile]			
	COc1ccc(N2CCN(C[C@H]3CN(c4ccc(C#N)c5ncccc45)C[C@@H](C)O3)CC2)cc1 [Example R1, 5-[(2S,6R)-2-[[4-(4-methoxyphenyl)piperazin-1-yl]methyl]-6-methyl-morpholin-4-yl]quinoline-8-carbonitrile]	much narrower safety window	9.3	0.1
	C[C@@H]1CN(c2ccc(C#N)c3ncccc23)C[C@H](CN2CCN(c3ccc(Cl)cc3)CC2)O1 [Example R2, 5-[(2S,6R)-2-[[4-(4-chlorophenyl)piperazin-1-yl]methyl]-6-methyl-morpholin-4-yl]quinoline-8-carbonitrile]	much narrower safety window	1.3	0.04
